Laboratory results: patent US20030017976A1, “Therapeutic properties of liposome-encapsulated immunomodulators” (priority 1998, published 2003)
Several values for one entry are separate records, joined by “and”; a condition that tells them apart may be missing. Equal values may be shown once. Read-outs that look alike come from different tables or passages of the source. Marks after values point to notes of the source that are not given here.

What was measured:
C57BL/6 mice [1] = assay: Prevention of CPT-11 induced intestinal damage and morbidity by oral immunomodulator; type: in vivo, mouse; details: for Death / Morbidity: 4 daily i.p., oral saline or free-form MTP-PE 100 ug/dose for one week before
Method: Experimental Design and Methods. […] Tissue was harvested 7 days after the last injection (small intestine and colon distal to the cecum). Histology was prepared. Some mice were monitored for the presence of drug toxicity.
Example 6 has shown that 100, 150, and 200 mg/kg at 4 consecutive i.p. administrations are highly toxic to C57BL/6 mice.

CT-26P colon carcinoma = assay: Combination therapy of CT-26P colon carcinoma with CPT-11 and oral liposomal JBT3002; type: in vivo, mouse; details: day 17; for Liver Weights, mean / Liver Weights, single mice: alone or + oral liposomal JBT3002 1 μg/dose
Method: This course of therapy was repeated weekly for about three weeks prior to tissue harvest. Experimental Groups/Procedures: 40 Balb/c mice were divided into 8 groups of 5 mice each. On day 0, the spleens of the mice were injected with 15,000 cultured CT-26P cells. The groups were then treated as follows: The spleens of Balb/c mice were injected with 15,000 cultured CT-26P colon carcinoma cells on day 0. […] Treated mice received two weeks of chemotherapy and three weeks of the macrophage activator. Tissues were harvested on day 17. The spleens and livers were weighed, the extent of metastasis was graded (denoted below) and histology prepared.

[2] = tested on: L3.6pl human pancreatic tumors; assay: Therapy of L3.6pl human pancreatic tumors in nude mice; type: in vivo, mouse; details: CPT-11 100 mg/kg i.p. once a week +/− oral JBT 3002 (tablet) 0.05 mcg/dose
Method: Table 19 (A, B, C). Therapy of human pancreatic carcinoma liver metastasis. The pancreas of nude mice were injected with 1×10^6 viable human pancreatic cancer L3.6pl cells. […] This regimen was repeated on a weekly basis for 3 weeks. The mice were killed. Pancreatic tumors, liver metastases, and lymph node metastasis were quantified.

IL-15 = assay: Ileum and liver lesion histology, BrdUrd and IL-15 expression after JBT 3002 and CPT-11; type: in vivo, mouse
Method: BALB/c mice were injected with CT-26 colon cancer cells into the spleen. […] Four days after the last injection of CPT-11, some mice were killed and their ileum was harvested and prepared for histology, immunohistochemistry, and molecular biology analyses.

[3] = Body weight change and deaths during therapy of CT-26 bearing BALB/c mice; type: in vivo, mouse
C57BL/6 mice [4] = tested on: C57BL/6 mice
[5] = tested on: CT-26 colon cancer liver metastasis; assay: Combination therapy of MTP-PE and CPT-11 for CT-26 colon cancer liver metastasis
CT-26 colon carcinoma = assay: Therapy of experimental liver metastasis of CT-26 colon carcinoma with CPT-11 and oral JBT 3002
[6] = Table 10, oral MLV-HBSS, CPT-11 100 mg/kg i.p. once a week, day 23
[7] = Table 11, CPT-11 100 mg/kg i.p. once a week alone, day 24
[8] = Table 12, oral MLV-HBSS, CPT-11 100 mg/kg 4 daily i.p. (intensive), day 14
[9] = Table 13, oral MLV-HBSS, CPT-11 100 mg/kg i.p. once a week, day 23
[10] = CPT-11 50 mg/kg, oral saline or MTP-PE
[11] = Table 14, MLV-JBT 3002 1.0 μg/dose or FF-JBT 3002 0.05 μg/dose oral 3 days, CPT-11 100 mg/kg 4 daily i.p., day 21
[12] = Table 15, oral JBT 3002 0.05 μg/dose 3 consecutive days and/or CPT-11 100 mg/kg 4 daily i.p., day 21
[13] = Table 16, oral JBT3002 0.05 μg dose thrice weekly 3 weeks and/or CPT-11 100 mg/kg i.p. once a week, day 24

Compound: CCc1c2c(nc3ccc(OC(=O)N4CCC(N5CCCCC5)CC4)cc13)-c1cc3c(c(=O)n1C2)COC(=O)[C@]3(O)CC [CPT-11, Irinotecan]
- Death (C57BL/6 mice [1]; CPT-11 100 mg/kg): 0/10
- Morbidity (C57BL/6 mice [1]; CPT-11 100 mg/kg): 8/10
- damage to intestinal tissue (C57BL/6 mice [1]; CPT-11 100 mg/kg, oral MTP-PE 100 μg/dose three consecutive days per week, C57BL/6 mice): induces loss of structural integrity of duodenal and large colon crypts
- Death (C57BL/6 mice [1]; CPT-11 150 mg/kg): 6/10
- Morbidity (C57BL/6 mice [1]; CPT-11 150 mg/kg): 10/10
- Death (C57BL/6 mice [1]; CPT-11 200 mg/kg): 9/10
- Morbidity (C57BL/6 mice [1]; CPT-11 200 mg/kg): 10/10
- GI toxicity (histology of intestinal villi and lumen) (C57BL/6 mice [1]; oral PBS or MTP-PE 100 μg/dose 3×/week for 3 weeks, then 4 i.p. injections of CPT-11): severe damage to the intestinal villi and lumen
- intestinal toxicity (histology) (C57BL/6 mice [1]; oral saline or JBT3002 0.1, 1.0 and 10 μg/dose in PC liposomes, then CPT-11 100 mg/kg i.p. 4 days): induced severe toxicity
- Spleen Weights, mean (CT-26P colon carcinoma; CPT-11 25 mg/kg once a week, alone or + oral JBT3002 1 μg/dose in PC liposomes 3x/week): 1.284 ± 0.257 grams
- Spleen Weights, single mice (CT-26P colon carcinoma; CPT-11 25 mg/kg once a week, alone or + oral JBT3002 1 μg/dose in PC liposomes 3x/week, 25 mg/kg): 1.486 grams and 0.888 grams and 1.056 grams and 1.588 grams and 1.403 grams
- Liver Weights, mean (CT-26P colon carcinoma; CPT-11 25 mg/kg once a week): 1.670 ± 0.301 grams
- Liver Weights, single mice (CT-26P colon carcinoma; CPT-11 25 mg/kg once a week, 25 mg/kg): 1.416 grams and 1.460 grams and 2.246 grams
- Spleen Weights, mean (CT-26P colon carcinoma; CPT-11 50 mg/kg once a week, alone or + oral JBT3002 1 μg/dose in PC liposomes 3x/week): 0.746 ± 0.561 grams
- Liver Weights, single mice (CT-26P colon carcinoma; CPT-11 50 mg/kg once a week, 50 mg/kg): 1.407 grams and 1.205 grams and 1.525 grams
- Spleen Weights, mean (CT-26P colon carcinoma; CPT-11 100 mg/kg once a week, alone or + oral JBT3002 1 μg/dose in PC liposomes 3x/week): 0.216 ± 0.110 grams
- Liver Weights, mean (CT-26P colon carcinoma; CPT-11 100 mg/kg once a week): 1.203 ± 0.065 grams
- Liver Weights, single mice (CT-26P colon carcinoma; CPT-11 100 mg/kg once a week, 100 mg/kg): 1.105 grams and 1.252 grams and 1.172 grams and 1.293 grams and 1.196 grams
- Incidence LN met ([2]; 31 days): 7/10
- Incidence WT/PC ([2]; 31 days): 0/10
- Incidence liver met ([2]; 31 days): 0/10
- Tumor weight, Average ([2]; 31 days): 152.10 mg
- Tumor weight, Max ([2]; 31 days): 375 mg
- Tumor weight, Median ([2]; 31 days): 117.5 mg
- Tumor weight, Min ([2]; 31 days): 0 mg
- tumor weight (range) ([2]; 31 days): (0-375) mg
- Tumor weight, single animals ([2]; 31 days after tumor cell injection, 100 mg/kg): 80 mg and 375 mg and 241 mg and 0 mg (2×) and 98 mg and 318 mg and 137 mg and 205 mg and 67 mg
- intestinal architecture of ileum (H&E) (IL-15; CPT-11 100 mg/kg, JBT 3002 0.05 μg/dose): produces disruption of the intestinal architecture
- expression of IL-15 in the ileum (IL-15; mouse, in vivo): significant decrease in expression of IL-15
- ΔBW [3, 6]: −1.7%
- ΔBW [3, 7]: −1.5%
- ΔBW [3, 8]: −17.6%
- ΔBW [3, 9]: 1.2%
- ΔBW ([3]; Table 14, MLV-JBT 3002 1.0 μg/dose or FF-JBT 3002 0.05 μg/dose oral 3 days, CPT-11 100 mg/kg 4 daily i.p., day not given): −24.0%
- Mice that died during therapy ([3]; Table 15, CPT-11 100 mg/kg 4 daily i.p. alone, 10 mice, 100 mg/kg): 7 of 10
- Survival (C57BL/6 mice [4]; 100 mg/kg CPT-11 i.p. Day 1-4, C57BL6 mice): 5/5
- Survival (C57BL/6 mice [4]; 150 mg/kg CPT-11 i.p. Day 1-4, C57BL6 mice): 3/5
- Survival (C57BL/6 mice [4]; 200 mg/kg CPT-11 i.p. Day 1-4, C57BL6 mice): 0/5
- deaths (C57BL/6 mice [4]; CPT-11 50, 75 or 100 mg/kg once a day for 4 days (i.p.)): None of the injected mice died
- lethal dose (C57BL/6 mice [4]; i.p. Day 1-4, C57BL6 mice): 200 mg/kg
- Liver Median no. metastases [5, 10]: 30
- Liver weight [5, 10]: 2.0 ± 0.3
- Spleen Tumor size [5, 10]: 8.3 ± 2.0 mm
- Spleen Weight [5, 10]: 0.6 ± 0.2 g
- Death of mice ([5]; CPT-11 100 mg/kg, oral saline): ------------------All mice died.------------------------
- tumor burden of the liver ([5]; CPT-11 25-100 mg/kg, CT-26P injected into the spleen): dose-dependent reduction in tumor burden of the liver
- Liver metastasis Incidence (CT-26 colon carcinoma; [6]): 5/5
- Liver weight (CT-26 colon carcinoma; [6]): 1.8 ± 0.3^b g
- Spleen (primary) Incidence (CT-26 colon carcinoma; [6]): 5/5
- Liver metastasis Incidence (CT-26 colon carcinoma; [7]): 5/5
- Liver weight (CT-26 colon carcinoma; [7]): 1.7 ± 0.3^c g
- Spleen (primary) Incidence (CT-26 colon carcinoma; [7]): 5/5
- Liver metastasis Incidence (CT-26 colon carcinoma; [8]): 2/5
- Liver weight (CT-26 colon carcinoma; [8]): 1.2 ± 0.1 g
- Spleen (primary) Incidence (CT-26 colon carcinoma; [8]): 5/5
- Liver metastasis Incidence (CT-26 colon carcinoma; [9]): 5/5
- Liver weight (CT-26 colon carcinoma; [9]): 2.6 ± 0.3 g
- Spleen (primary) Incidence (CT-26 colon carcinoma; [9]): 5/5
- Liver metastasis Incidence (CT-26 colon carcinoma; [11]): 0/5^b
- Liver weight (CT-26 colon carcinoma; [11]): 1.2 ± 0.2 g
- Spleen tumor Incidence (CT-26 colon carcinoma; [11]): 5/5^b
- Liver metastasis Incidence (CT-26 colon carcinoma; [12]): 1/10^b
- Liver weight (CT-26 colon carcinoma; [12]): 1.9 ± 0.3^c,d g
- Spleen tumor Incidence (CT-26 colon carcinoma; [12]): 6/10^b
- Liver metastasis Incidence (CT-26 colon carcinoma; [13]): 8/10
- Liver weight (CT-26 colon carcinoma; [13]): 2.0 ± 0.9^c g
- Spleen tumor Incidence (CT-26 colon carcinoma; [13]): 7/10
